In publication PMC12723162, “Alphaherpesvirus pUL21 homologs use non-canonical sequences to compete with cellular adaptors for protein phosphatase 1 binding” (The Journal of Biological Chemistry, 2025):

Legend:
pUL21-GFP = experiment: Co-IP of Myc-PP1 with pUL21-GFP; type: binding, HSV-1
From the text: Bacterial expression plasmids encoding the mouse PP1γ catalytic domain (residues 7–300)-H6 and pUL21-H6, and mammalian expression vectors encoding pUL21(FV242AA)-GFP, pORF38-GFP and pORF38(FV255AA)-GFP, were described previously ([23]). We note that the mouse and human PP1γ catalytic domains share 100% amino acid identity. pORF38-NLT-H6 was generated by sub-cloning residues 1 to 263 of ORF38 into the vector pOPTnH ([52]). pUL21-RVxF-H6 was generated by inserting the mutations A237V and V239F into pUL21-H6 by QuikChange site-directed mutagenesis. Human PP1α was cloned from HeLa cell cDNA into a vector derived from pF5K (Promega) with an N-terminal Myc epitope tag via restriction-based cloning, and point mutations were introduced into Myc-PP1α by QuikChange mutagenesis. A plasmid encoding pUL21-GFP was generated by sub-cloning a codon-optimized synthetic UL21 gene (GeneArt) into pEGFP-N1 (Clontech), yielding an identical pUL21-GFP amino acid sequence as used in ([23]). pUL21-ΔL, -ΔR and -ΔLR were generated from this vector via inverse PCR, and point mutations were introduced via QuikChange mutagenesis.
Mycoplasma-free human embryonic kidney 293T (HEK 293T) cells (American Type Culture Collection #CRL-3216) were maintained in Dulbecco’s modified Eagle’s medium (DMEM) with high glucose (Merck), supplemented with 10% (v/v) heat-inactivated fetal calf serum and 2 mM L-glutamine (complete DMEM) in a humidified 5% CO2 atmosphere at 37 °C. The identity of the cell line was not independently confirmed.
Monolayers of HEK 293T cells were transfected with 7.7 μg of DNA per 9 cm dish, using 18 μg/ml 25 kDa branched polyethylenimine (Merck) or using TransIt-LT1 (Mirus) in accordance with the manufacturer’s instructions. Cells were harvested 24 h post-transfection and incubated for 30 min in ice-cold 10 mM Tris pH 7.5, 150 mM NaCl, 0.5 mM EDTA, 0.5% Igepal CA-630 (a.k.a. NP-40), 1% (v/v) EDTA-free protease inhibitor cocktail (Merck) before clarification at 21,000×g for 10 min at 4 °C. Lysate protein concentrations were measured using the bicinchoninic acid (BCA) assay (Pierce) and normalized before affinity capture using GFP-Trap resin (ChromoTek) following the manufacturer’s protocol. Samples were eluted by heating the resin to 95 °C for 5 min in 45 μl 2 × SDS-PAGE loading buffer. Proteins were separated by SDS-PAGE and transferred to 0.45 μm nitrocellulose membranes (PerkinElmer or Cytiva). Membranes were stained with Ponceau S and imaged using a G:Box XX9 (Syngene) before blocking in Tris-buffered saline with 0.1% TWEEN-20 (TBS-T) supplemented with 5% (w/v) non-fat milk powder. Immunoblotting was performed using antibodies diluted in blocking buffer as listed below, and immunoblots were imaged using an Odyssey CLx (LI-COR Biosciences). Densitometry was performed using Image Studio Lite version 5.2 (LI-COR Biosciences), and statistical tests were performed using Prism version 7 (GraphPad).
The following primary antibodies and dilutions were used for immunoblotting: rabbit anti-CERT 1:10,000 (Abcam #Ab72536), mouse anti-PP1α 1:1000 (Santa Cruz #sc-271762), mouse anti-Myc 1:4000 (Millipore #05–724), rat anti-tubulin (clone YL1/2) hybridoma supernatant 1:40 ([54]). The anti-CERT antibody was validated using a knock-out cell line. The anti-PP1α antibody has been validated by siRNA knockdown ([55]). The anti-Myc antibody was validated using control experiments lacking Myc-tagged transfected constructs ([56]). The anti-tubulin antibody has been validated by immunofluorescence microscopy, immuno-electron microscopy and radiolabeled immunosorbent assay ([54]). Secondary antibodies from LI-COR Biosciences were diluted 1:10,000 as follows: IRDye 680RD goat anti-rat (#926–68029) and goat anti-mouse (#926–68020), or IRDye 800CW goat anti-rabbit (#926–32221).

PP1 regulatory protein = conditions: cited from earlier work
From the text: HEK 293T cells were co-transfected with pUL21-GFP and WT or mutant Myc-PP1, and lysates were subjected to GFP affinity capture before SDS-PAGE and immunoblott ...

In the case of F257A, the “Co-IP of Myc-PP1 by pUL21-GFP” value (pUL21-GFP; HEK 293T cells co-transfected, 24 h, immunoblot, versus WT Myc-PP1) is reported as “profoundly less efficient than for WT Myc-PP1”, the “Abundance of Myc-PP1 in cell lysates” value (pUL21-GFP; HEK 293T lysates used for IP, versus WT) is reported as “lower abundance of these mutants in the cell lysates” and the “Bound:input ratio of Myc-PP1 (effect of mutation)” value (pUL21-GFP; densitometry, HEK 293T, versus WT, ∗∗∗p < 0.001) is reported as “significantly disrupt binding to pUL21-GFP”. The “PP1 regulatory protein binding” value (PP1 regulatory protein) was “severely decrease PP1 regulatory protein binding”.
